Laboratory results taken from PubChem BioAssay AID2060905 (Molecular Pharmacology Branch, DTP, NCI, 2025).
pIC50: −log10 of the molar value.

System: 282377-053-R-J1-PDC complex spheroid viability
Test: Anticancer human tumor 282377-053-R-J1-PDC patient-derived colon adenocarcinoma cell line growth inhibition [RAS]
Conditions: for pIC50: curve of first compound; for viability, T/C: stronger effect = lower value; active = viability on the fitted dose curve at most 10% of control; inactive = the rest
Source text: RAS pathway inhibitors in Combinations in Complex Spheroids
A high-throughput screen of multi-cell type tumor spheroids was designed to identify active combinations of RAS pathway inhibitors and targeted small molecules. Complex spheroids include a stromal component modeled by human endothelial cells (HUVEC) and fibroblasts modeled by human mesenchymal stem cells (MSCs). The concentration ranges selected for each drug and investigational agent were based upon clinically achievable concentrations if the clinical Cmax of the agent was known.
Compounds. The drugs and investigational agents: abemaciclib (NSC768073), cobimetinib (NSC768068), divarasib (GDC6063, NSC841802), docetaxel (NSC628503), GDC-1971 (RLY-1971, NSC841576), gemcitabine (NSC613327), inavolisib (NSC800729), ipatasertib (NSC767898), KB-0742 (NSC834161), MRTX-1133 (NSC836407), osimertinib (NSC779217), RMC-4630 (NSC839698), RMC-6236 (NSC851965), RMC-6291 (NSC852671), Ro-3306 (NSC812927), sapanisertib (NSC764658), SN-38 (NSC673596), staurosporine (NSC755774), SY5609 (NSC837396), and tovorafenib (DAY101, NSC766906), were obtained from the National Cancer Institute (NCI) Developmental Therapeutics Program Chemical Repository. The FDA-approved anticancer drug set is available from the NCI Developmental Therapeutics Program. […] The stock solutions were prepared in dimethyl sulfoxide (DMSO, Sigma-Aldrich, St. Louis, MO, cat. D2650) at 800-fold the tested concentration and stored at -70 degrees C prior to their use. All drugs and investigational agents were tested over a range starting from a high concentration at or near the clinical Cmax and decreasing in half-log increments. If the clinical Cmax for an agent had not been determined, the highest concentration tested was 10 microM.
Cell Culture. All cells were maintained in an incubator at 37 degrees C and 5% CO2 with 95% humidity. The PDC lines were cultured according to standard operating procedures established by the NCI PDMR. All PDCs were thawed and cultured in Matrigel-coated flasks prepared with a working solution of 1X Ham's F-12 nutrient mix, without supplementation (Invitrogen, Waltham, MA, cat. 11765054), 100 U/mL penicillin-streptomycin (Invitrogen, cat. 15140122), and 2.5% Matrigel (Corning Inc., Corning, NY, cat. 354248) for the first three passages. The 362531-283-R-J2-PDC and 782815-120-R-J1-PDC lines were cultured in 6C/Colon 1B media, which includes advanced DMEM/F-12 (Thermo Fisher Scientific, cat. 12634028), 10 mM HEPES (Thermo Fisher Scientific, cat. 15630080), 1X GlutaMAX supplement (Thermo Fisher Scientific, cat. 35050061), 0.1 mg/mL primocin (InvivoGen, San Diego, CA, cat. ant-pm-2), 10% defined fetal bovine serum, heat inactivated (HyClone Laboratories Inc., Logan, UT, cat. SH30070.03HI), 50% L-WRN conditioned media (ATCC, cat. CRL-3276), 1.25 mM N-Acetyl-L-cysteine (Sigma-Aldrich, cat. A9165), 10 mM nicotinamide (Sigma-Aldrich, cat. N0636), 1X B-27 supplement (Thermo Fisher Scientific, cat. 17504044), 1X N-2 supplement (Thermo Fisher Scientific, cat. 17502048), 50 ng/mL human EGF (Thermo Fisher Scientific, cat. PHG0311), and 10 microM Y-27632 dihydrochloride (Tocris Bioscience, cat. 1254). The K12877-001-R-J1-PDC line was cultured in 6I media, which includes all 6C/Colon 1B media plus 10 ng/mL human FGF-10 (PeproTech, cat. 100-26), 1 ng/mL human FGF-2 (PeproTech, cat. 100-18B), 1 µM prostaglandin E2 (Tocris Bioscience, cat. 2296), […] hydrocortisone (Sigma-Aldrich, cat. H4001), and […] bovine insulin (Sigma-Aldrich, cat. I6634). The K86415-001-R-J1-PDC line was cultured in 6D media, which includes all 6C/Colon 1B media components minus the L-WRN conditioned media. The 485176-168-R4-J1-PDC was cultured in PANC media, which includes all 6C/Colon 1B media plus 100 ng/mL human FGF-10 (PeproTech, cat. 100-26), 500 nM SB-431542 (Selleckchem, cat. S1067), and 10 nM gastrin (Tocris Bioscience, cat. 3006). […]

[1] = second compound 0.0316 µM, first compound 0.00316 µM
[2] = second compound 0.0316 µM, first compound 0.01 µM
[3] = second compound 0.0316 µM, first compound 0.0316 µM
[4] = second compound 0.0316 µM, first compound 0.1 µM
[5] = second compound 0.0316 µM, first compound 0.316 µM
[6] = second compound 0.0316 µM, first compound 1 µM
[7] = second compound 0.1 µM, first compound 0.00316 µM
[8] = second compound 0.1 µM, first compound 0.01 µM
[9] = second compound 0.1 µM, first compound 0.0316 µM
[10] = second compound 0.1 µM, first compound 0.1 µM
[11] = second compound 0.1 µM, first compound 0.316 µM
[12] = second compound 0.1 µM, first compound 1 µM
[13] = second compound 0.316 µM, first compound 0.00316 µM
[14] = second compound 0.316 µM, first compound 0.01 µM
[15] = second compound 0.316 µM, first compound 0.0316 µM
[16] = second compound 0.316 µM, first compound 0.1 µM
[17] = second compound 0.316 µM, first compound 0.316 µM
[18] = second compound 0.316 µM, first compound 1 µM
[19] = second compound 1 µM, first compound 0.00316 µM
[20] = second compound 1 µM, first compound 0.01 µM
[21] = second compound 1 µM, first compound 0.0316 µM
[22] = second compound 1 µM, first compound 0.1 µM
[23] = second compound 1 µM, first compound 0.316 µM
[24] = second compound 1 µM, first compound 1 µM
[25] = second compound 3.16 µM, first compound 0.00316 µM
[26] = second compound 3.16 µM, first compound 0.01 µM
[27] = second compound 3.16 µM, first compound 0.0316 µM
[28] = second compound 3.16 µM, first compound 0.1 µM
[29] = second compound 3.16 µM, first compound 0.316 µM
[30] = second compound 3.16 µM, first compound 1 µM
[31] = second compound 10 µM, first compound 0.00316 µM
[32] = second compound 10 µM, first compound 0.01 µM
[33] = second compound 10 µM, first compound 0.0316 µM
[34] = second compound 10 µM, first compound 0.1 µM
[35] = second compound 10 µM, first compound 0.316 µM
[36] = second compound 10 µM, first compound 1 µM
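Note: spheroids exposed to agents for seven days before readout.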
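Throughout, for viability, T/C: luminescence viability as percent of DMSO vehicle control wells.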

C=CC(=O)Nc1cc(Nc2nccc(-c3cn(C)c4ccccc34)n2)c(OC)cc1N(C)CCN(C)C + C#Cc1c(F)ccc2cc(O)cc(-c3ncc4c(N5CC6CCC(C5)N6)nc(OCC56CCCN5CC(F)C6)nc4c3F)c12
< 6.00: pIC50 (second compound 0.0316 µM) | pIC50 (second compound 0.1 µM) | pIC50 (second compound 0.316 µM) | pIC50 (second compound 1 µM) | pIC50 (second compound 3.16 µM) | pIC50 (second compound 10 µM)
inactive: viability, T/C [1] 104% | viability, T/C [2] 91.5% | viability, T/C [3] 98.2% | viability, T/C [4] 104% | viability, T/C [5] 95.6% | viability, T/C [6] 110% | viability, T/C [7] 96.6% | viability, T/C [8] 90.4% | viability, T/C [9] 99.9% | viability, T/C [10] 91.9% | viability, T/C [11] 93.5% | viability, T/C [12] 97.4% | viability, T/C [13] 88.1% | viability, T/C [14] 85.3% | viability, T/C [15] 84.9% | viability, T/C [16] 86.1% | viability, T/C [17] 91.7% | viability, T/C [18] 85.9% | viability, T/C [19] 98.5% | viability, T/C [20] 100% | viability, T/C [21] 93% | viability, T/C [22] 108% | viability, T/C [23] 82.8% | viability, T/C [24] 95.9% | viability, T/C [25] 88.2% | viability, T/C [26] 87.8% | viability, T/C [27] 114% | viability, T/C [28] 92.3% | viability, T/C [29] 108% | viability, T/C [30] 101% | viability, T/C [31] 103% | viability, T/C [32] 94.9% | viability, T/C [33] 108% | viability, T/C [34] 73% | viability, T/C [35] 80.1% | viability, T/C [36] 99.2%

CC(Nc1ccc2c(c1)OCCn1cc(N3C(=O)OCC3C(F)F)nc1-2)C(N)=O (stereo unspecified) + C#Cc1c(F)ccc2cc(O)cc(-c3ncc4c(N5CC6CCC(C5)N6)nc(OCC56CCCN5CC(F)C6)nc4c3F)c12
inactive: viability, T/C [3] 109% | viability, T/C [4] 84.6% | viability, T/C [5] 88.8% | viability, T/C [6] 96% | viability, T/C (second compound 0.0316 µM, first compound 3.16 µM) 90.2% | viability, T/C (second compound 0.0316 µM, first compound 10 µM) 72.8% | viability, T/C [9] 101% | viability, T/C [10] 85.7% | viability, T/C [11] 93.1% | viability, T/C [12] 97.3% | viability, T/C (second compound 0.1 µM, first compound 3.16 µM) 91.1% | viability, T/C (second compound 0.1 µM, first compound 10 µM) 72.6% | viability, T/C [15] 131% | viability, T/C [16] 92.7% | viability, T/C [17] 78.2% | viability, T/C [18] 104% | viability, T/C (second compound 0.316 µM, first compound 3.16 µM) 74.7% | viability, T/C (second compound 0.316 µM, first compound 10 µM) 96.1% | viability, T/C [21] 95.7% | viability, T/C [22] 97.8% | viability, T/C [23] 98.7% | viability, T/C [24] 100% | viability, T/C (second compound 1 µM, first compound 3.16 µM) 88.5% | viability, T/C (second compound 1 µM, first compound 10 µM) 93.3% | viability, T/C [27] 90.5% | viability, T/C [28] 88.8% | viability, T/C [29] 88.3% | viability, T/C [30] 77.5% | viability, T/C (second compound 3.16 µM, first compound 3.16 µM) 76.6% | viability, T/C (second compound 3.16 µM, first compound 10 µM) 76.9% | viability, T/C [33] 102% | viability, T/C [34] 101% | viability, T/C [35] 97% | viability, T/C [36] 81.2% | viability, T/C (second compound 10 µM, first compound 3.16 µM) 90% | viability, T/C (second compound 10 µM, first compound 10 µM) 78.5%
< 5.00: pIC50 (second compound 0.0316 µM) | pIC50 (second compound 0.1 µM) | pIC50 (second compound 0.316 µM) | pIC50 (second compound 1 µM) | pIC50 (second compound 3.16 µM) | pIC50 (second compound 10 µM)

O=C(c1ccc(F)c(F)c1Nc1ccc(I)cc1F)N1CC(O)([C@@H]2CCCCN2)C1 + C#Cc1c(F)ccc2cc(O)cc(-c3ncc4c(N5CC6CCC(C5)N6)nc(OCC56CCCN5CC(F)C6)nc4c3F)c12
7.30: pIC50 (second compound 0.316 µM)
7.10: pIC50 (second compound 0.0316 µM)
7.60: pIC50 (second compound 10 µM)
7.37: pIC50 (second compound 3.16 µM)
7.34: pIC50 (second compound 1 µM)
7.20: pIC50 (second compound 0.1 µM)
inactive: viability, T/C [1] 92% | viability, T/C [2] 73% | viability, T/C [3] 80.9% | viability, T/C [4] 42.3% | viability, T/C [5] 27.6% | viability, T/C [6] 19.7% | viability, T/C [7] 86.3% | viability, T/C [8] 75.2% | viability, T/C [9] 62.5% | viability, T/C [10] 42.5% | viability, T/C [11] 26% | viability, T/C [12] 16.9% | viability, T/C [13] 87.7% | viability, T/C [14] 77.5% | viability, T/C [15] 58.5% | viability, T/C [16] 37.2% | viability, T/C [17] 23% | viability, T/C [18] 15.6% | viability, T/C [19] 75.3% | viability, T/C [20] 77.1% | viability, T/C [21] 59.1% | viability, T/C [22] 29% | viability, T/C [23] 20.5% | viability, T/C [24] 14.9% | viability, T/C [25] 79.8% | viability, T/C [26] 75.6% | viability, T/C [27] 56.4% | viability, T/C [28] 30.5% | viability, T/C [29] 20.7% | viability, T/C [30] 15.6% | viability, T/C [31] 97.2% | viability, T/C [32] 75.1% | viability, T/C [33] 41.8% | viability, T/C [34] 25.4% | viability, T/C [35] 17.5% | viability, T/C [36] 12.1%
